Data reported in publication PMC9312238, “Novel Organoselenium Redox Modulators with Potential Anticancer, Antimicrobial, and Antioxidant Activities” (Antioxidants, 2022).
Read-outs that look alike come from different tables or passages of the source.

Experiments:
MCF-7 cells = test: cells; format: cell-based, human; details: for IC50: Homo sapiens; for MCF7 TI (IC50 WI-38 / IC50 MCF-7): therapeutic index, ratio of WI-38 IC50 to MCF-7 IC50
Procedure: (§1) Cells were obtained from the ATCC Company (VACSERA), Cairo, Egypt. MTT assay were performed according to the literature method. More details are in the Supporting Information.
(§2) Recently, OSe compounds gained much attention as possible drug candidates due to their various pharmacological properties. […] Therefore, the anticancer attributes of the newly prepared OSe compounds were estimated using the MTT assay against MCF-7 and HepG2 and compared with their respective cytotoxicity in WI-38 primary cells. The anthracycline drug doxorubicin was used as the standard. […] Moreover, the therapeutic index (TI) was also calculated (according to Equation (1)), which is considered a measure of the selectivity and safety of the synthesized compounds. (1) TI=IC50 for the normal WI38 cells/IC50 for the cancer cells […]
(§3) 1.1. The biological assays
(§4) 1.1.1. The anticancer activity
(§5) The breast adenocarcinoma (MCF-7), Hepatocellular carcinoma (HEPG-2), and nor-mal fibroblast (WI-38) cells were obtained from ATCC via Holding company for biological products and vaccines (VACSERA), Cairo, Egypt.
(§6) DMSO, and fetal bovine serum was obtained from Sigma Aldrich. Dulbecco’s modified Eagle’s medium was used as the culture medium for the cells, and the cytotoxicity was evaluated using the reported MTT assay. Doxorubicin was used as the positive reference, and the IC50 values were obtained from the corresponding dose-response curve.
(§7) This colorimetric assay is based on converting the yellow tetrazolium bromide (MTT) to a purple formazan derivative by mitochondrial succinate dehydrogenase in viable cells. […]
(§8) added were 100 units/ml penicillin and 100µg/ml streptomycin at 37 C in a 5% Co2 incu-bator. The cell lines were seeded in a 96-well plate at a density of 1.0x10^4 cells/well. at 37 C for 48 h under 5% Co2. After incubation, the cells were treated with different concentra-tions of compounds and incubated for 24 h. After 24 h of drug treatment, 20 µl of MTT solution at 5mg/ml was added and incubated for 4 h. Finally, dimethyl sulfoxide (DMSO) in the volume of 100 µl is added to each well to dissolve the purple formazan formed. The colorimetric assay is measured and recorded at an absorbance of 570 nm using a plate […]
(§9) The percentage of the relative cell viability was calculated as (A570 of treated samples/A570 of the untreated sample) X 100. […]

WI-38 cells = test: cells; format: cell-based, human; details: Homo sapiens
Procedure: as §1, §2, §3, §4, §5, §6, §7, §8, §9

HepG2 cells = test: cells; format: cell-based, human; details: for IC50: Homo sapiens; for HepG2 TI (IC50 WI-38 / IC50 HepG2): therapeutic index, ratio of WI-38 IC50 to HepG2 IC50
Procedure: as §1
Recently, OSe compounds gained much attention as possible drug candidates due to their various pharmacological properties. Our group has reported several OSe candidates with potential anticancer, antimicrobial, and antioxidant activities. Therefore, the anticancer attributes of the newly prepared OSe compounds were estimated using the MTT assay against MCF-7 and HepG2 and compared with their respective cytotoxicity in WI-38 primary cells. The anthracycline drug doxorubicin was used as the standard. The minimal inhibition concentration required to kill 50% of the cells (IC50) was calculated from dose-response curves presented in Table 1. Moreover, the therapeutic index (TI) was also calculated (according to Equation (1)), which is considered a measure of the selectivity and safety of the synthesized compounds. (1) TI=IC50 for the normal WI38 cells/IC50 for the cancer cells […]
as §3, §4
The breast adenocarcinoma (MCF-7), Hepatocellular carcinoma (HEPG-2), and nor-mal fibroblast (WI-38) cells were obtained from ATCC via Holding company for biological products and vaccines (VACSERA), Cairo, Egypt. The reagents RPMI-1640 medium, MTT, DMSO, and fetal bovine serum was obtained from Sigma Aldrich. Dulbecco’s modified Eagle’s medium was used as the culture medium for the cells, and the cytotoxicity was evaluated using the reported MTT assay. Doxorubicin was used as the positive reference, and the IC50 values were obtained from the corresponding dose-response curve.
This colorimetric assay is based on converting the yellow tetrazolium bromide (MTT) to a purple formazan derivative by mitochondrial succinate dehydrogenase in viable cells.
Cell lines were cultured in RPMI-1640 medium with 10% fetal bovine serum. Antibiotics added were 100 units/ml penicillin and 100µg/ml streptomycin at 37 C in a 5% Co2 incu-bator. The cell lines were seeded in a 96-well plate at a density of 1.0x10^4 cells/well. at 37 C for 48 h under 5% Co2. After incubation, the cells were treated with different concentra-tions of compounds and incubated for 24 h. After 24 h of drug treatment, 20 µl of MTT solution at 5mg/ml was added and incubated for 4 h. Finally, dimethyl sulfoxide (DMSO) in the volume of 100 µl is added to each well to dissolve the purple formazan formed. The colorimetric assay is measured and recorded at an absorbance of 570 nm using a plate reader (EXL 800, USA). The percentage of the relative cell viability was calculated as (A570 of treated samples/A570 of the untreated sample) X 100. […]
(§10) Inhibition%= (Ablank-Asample)/(Ablank)*100. (1)

Escherichia coli = test: Agar diffusion assay, E. coli; format: cell-based; set-up: E. coli A% (activity index): concentration or dose not given beside the values; details: for zone of inhibition at 20 µM: Escherichia coli, read-out: E. coli IZD (mm); for E. coli A% (activity index): zone of test compound / zone of standard (ampicillin) x 100
Staphylococcus aureus = test: Agar diffusion assay, S. aureus; format: cell-based; set-up: S. aureus A% (activity index): concentration or dose not given beside the values; details: for zone of inhibition at 20 µM: Staphylococcus aureus, read-out: S. aureus IZD (mm); for S. aureus A% (activity index): zone of test compound / zone of standard (ampicillin) x 100
Procedure: (§11) The antimicrobial activities of the OSe compounds were evaluated against C. albicans yeast, as well as E. coli and S. bacteria, employing the agar well diffusion assay. Furthermore, the MICs (in µM) were determined by the microdilution method according to the reported protocol. More details are in the Supporting Information.
(§12) Compounds were evaluated for their antimicrobial activity against the Gram-negative bacteria Escherichia coli (E. coli) and the Gram-positive bacteria Staphylococcus aureus (S. aureus), as well as the Candida albicans (C. albicans) fungal strain, using the agar diffusion assay. Ampicillin and clotrimazole were used as standards. Indeed, the antimicrobial properties of the OSe compounds were also obtained from the activity index percentage (A%) according to Equation (2). (2) A%=Zone of inhibition by test compound diametre/Zone of inhibition by standard diametre×100 . […]
(§13) 1.1.1. The antimicrobial activity
The antimicrobial activities of the OSe compounds were evaluated against C. albicans yeast as well as E. coli gram-negative and S. aureus gram-positive bacteria employing the agar well diffusion assay. Briefly, a concentration of 1 mM was prepared for each compound by dissolving in DMSO. Paper discs of standard size […] were steri-lized in an autoclave and soaked in 20 µL of the test compounds, and placed in the Petri dishes, which in turn contain a nutrient media (agar 20 g, peptone 5 g, and beef extract 3 g) seeded with the dedicated strain. Incubation lasted for 24 h at 36
(§14) Furthermore, the MICs (in µM) were determined by the microdilution method according to the reported protocol. […]
as §10

Candida albicans = test: microbe, parasite or virus in culture; format: cell-based; details: for zone of inhibition at 20 µM: Candida albicans, inhibition zone diameter, six-mm disks soaked with 20 μM of compound, read-out: C. albicans IZD (mm); for C. albicans A% (activity index): zone of test compound / zone of standard (clotrimazole) x 100
Procedure: as §11, §12, §13
The antimicrobial activities of the OSe compounds were evaluated against C. albicans yeast as well as E. coli gram-negative and S. aureus gram-positive bacteria employing the agar well diffusion assay. […]
compound by dissolving in DMSO. […]
Petri dishes, which in turn contain a nutrient media (agar 20 g, peptone 5 g, and beef extract 3 g) seeded with the dedicated strain. Incubation lasted for 24 h at 36
as §14, §10

[1] = MCF7, MTT, 24 h incubation, MCF-7 cells, read-out: MCF7 IC50
[2] = MTT, 24 h incubation, normal WI-38 cells, read-out: WI38 IC50
[3] = MTT, 24 h incubation, HepG2 cells, read-out: HepG2 IC50
[4] = inhibition zone diameter, six-mm disks soaked with 20 μM of compound

Compound | IC50 (MCF-7 cells; [1]) | IC50 (WI-38 cells; [2]) | IC50 (HepG2 cells; [3]) | zone of inhibition at 20 µM (Escherichia coli; [4]) | E. coli A% (activity index) (Escherichia coli) | zone of inhibition at 20 µM (Staphylococcus aureus; [4]) | S. aureus A% (activity index) (Staphylococcus aureus) | melting point | MCF7 TI (IC50 WI-38 / IC50 MCF-7) (MCF-7 cells) | HepG2 TI (IC50 WI-38 / IC50 HepG2) (HepG2 cells) | zone of inhibition at 20 µM (Candida albicans) | C. albicans A% (activity index) (Candida albicans) | IC50 (MCF-7 cells; MCF7, 24 h, read-out: MCF7 IC50 (µM)) | IC50 (WI-38 cells; WI-38, 24 h, read-out: WI38 IC50 (µM)) | IC50 (HepG2 cells; HepG2, 24 h, read-out: HepG2 IC50 (µM)) | zone of inhibition at 20 µM (Escherichia coli) | zone of inhibition at 20 µM (Staphylococcus aureus)
O=C(C[Se]c1ccc(N2C(=O)C=CC2=O)cc1)Nc1ccccc1 [Compound 13, 2-((4-(2,5-dioxo-2,5-dihydro-1H-pyrrol-1-yl)phenyl)selanyl)-N-phenylacetamide] | > 100 µM | > 100 µM | > 100 µM | 5 mm | 22% | 6 mm | 29% | 169 to 170 °C | – | – | – | – | – | – | – | – | –
CC(=O)Nc1ccc([Se]CC(=O)Nc2ccccc2)cc1 [Compound 18, 2-((4-acetamidophenyl)selanyl)-N-phenylacetamide] | 43.5 ± 2.6 µM | 85.1 ± 4.7 µM | 47.6 ± 2.8 µM | 6 mm | 26% | 8 mm | – | 161 to 162 °C | 2 | 1.8 | 11 mm | 46% | – | – | – | – | –
CN(C)C=Nc1ccc([Se]CC(=O)Nc2ccccc2)cc1 [Compound 20, 2-((4-(((dimethylamino)methylene)amino)phenyl)selanyl)-N-phenylacetamide] | 36.8 ± 2.4 µM | > 100 µM | 40.3 ± 2.5 µM | 8 mm | 35% | 9 mm | 43% | 118 to 120 °C | 2.7 | 2.5 | 11 mm | 46% | – | – | – | – | –
N#CC(C#N)=NNc1ccc([Se]CC(=O)Nc2ccccc2)cc1 [Compound 7] | – | – | – | – | 13% | – | 29% | 177 to 179 °C | – | – | – | – | > 100 µM | > 100 µM | > 100 µM | 3 mm | 6 mm
O=C(O)C=CC(=O)Nc1ccc([Se]CC(=O)Nc2ccccc2)cc1 [Compound 10, 4-oxo-4-((4-((2-oxo-2-(phenylamino)ethyl)selanyl)phenyl)amino)but-2-enoic acid] | 34.8 ± 2.5 µM | 46 ± 2.9 µM | > 100 µM | 9 mm | 39% | 11 mm | 52% | – | 1.3 | – | 8 mm | 33% | – | – | – | – | –
O=C(CCl)Nc1ccc([Se]CC(=O)Nc2ccccc2)cc1 [Compound 19] | > 100 µM | > 100 µM | > 100 µM | – | – | – | – | 184.8 °C | – | – | – | – | – | – | – | – | –
O=C(C[Se]c1ccc(N2C(=O)c3ccccc3C2=O)cc1)Nc1ccccc1 [Compound 12, 2-((4-(1,3-dioxoisoindolin-2-yl)phenyl)selanyl)-N-phenylacetamide] | > 100 µM | > 100 µM | > 100 µM | 6 mm | 26% | 8 mm | 38% | 261 to 262 °C | – | – | 7 mm | 29% | – | – | – | – | –
O=C(C[Se]c1ccc(N=Cc2ccccc2O)cc1)Nc1ccccc1 | – | – | – | – | – | – | – | 150.3 °C | – | – | – | – | – | – | – | – | –
CC1(C)S[C@@H]2[C@H](NC(=O)[C@H](N)c3ccccc3)C(=O)N2[C@H]1C(=O)O [Ampicillin, ampicillin, reference compound] | – | – | – | 23 mm | 100% | 21 mm | 100% | – | – | – | – | – | – | – | – | – | –
O=CNc1ccc([Se]CC(=O)Nc2ccccc2)cc1 [Compound 17, 2-((4-formamidophenyl)selanyl)-N-phenylacetamide] | > 100 µM | > 100 µM | > 100 µM | – | – | – | – | 143 to 144 °C | – | – | – | – | – | – | – | – | –
CC1=NN(c2ccccc2)C(=O)C1=NNc1ccc([Se]CC(=O)Nc2ccccc2)cc1 [Compound 8, 2-((4-(2-(3-methyl-5-oxo-1-phenyl-1H-pyrazol-4(5H)-ylidene)hydrazinyl)phenyl)selanyl)-N-phenylacetamide] | > 100 µM | > 100 µM | > 100 µM | – | – | 4 mm | 19% | 197 to 199 °C | – | – | – | – | – | – | – | – | –
COc1cccc2c1C(=O)c1c(O)c3c(c(O)c1C2=O)C[C@@](O)(C(=O)CO)C[C@@H]3O[C@H]1C[C@H](N)[C@H](O)[C@H](C)O1 [Doxorubicin, doxorubicin, reference compound] | – | – | 4.5 ± 0.2 µM | – | – | – | – | – | 1.6 | 1.5 | – | – | – | – | – | – | –
